Reference: a melting point compilation (Tetko et al.; mined from patent text by program, amines drawn as free bases though some values may be those of a salt)

Row | SMILES | melting point
1 | CCCCCCCC(=O)NCCCCCOS(C)(=O)=O | 67 to 68 °C
2 | Cc1cc(NC(=O)c2cnccc2C(F)(F)F)on1 | 53 to 55 °C
3 | COC(=O)[C@@H]1C[C@H](OC(=O)c2ccccc2)CN1C(=O)OC(C)(C)C | 89 to 90 °C
4 | O=C(CCc1ccccc1)Nc1ccc(C(=O)NN=C2C(=O)Nc3ccc(Br)cc32)cc1 | 326 °C
5 | CCN1CCCC1CNC(=O)c1cc(NS(C)(=O)=O)ccc1OC (configuration not stated) | 171 to 172 °C
6 | CNC(=S)C1(c2cccc(C)n2)CCCCS1 (configuration not stated) | 139 °C
7 | Cn1cc(C2=C(c3cn(C)c4ccc([N+](=O)[O-])cc34)C(=O)NC2=O)c2ccccc21 | 282 to 284 °C
8 | O=C1Nc2ccc(F)cc2Nc2sc3ccccc3c21 | 249 to 250 °C
9 | CCCCc1nn(-c2cc(N)ccc2Br)c(=O)n1Cc1ccc(-c2ccccc2S(=O)(=O)NC(C)(C)C)cc1F | 103 to 105 °C
10 | Cc1ccc(S(=O)(=O)NCCCCOc2ccc(N)cc2)cc1 | 176 to 178 °C
11 | CCOc1cc(C(CC(N)=O)N2Cc3ccccc3C2=O)ccc1OC (configuration not stated) | 169 °C
12 | COC(=O)CCc1ccc(-n2c(C)c(C)[nH]c2=O)cc1 | 152 to 154 °C
13 | Cc1cn2nc(S(=O)(=O)Cl)nc2nc1C | 116 to 120 °C
14 | Ic1ccc2c(c1)Cc1cc(I)ccc1-2 | 203 to 207 °C
15 | COc1c(C(O)CNC(C)(C)Cc2c(C)c(C)cc(C)c2C)ccc(O)c1O (configuration not stated) | 165 to 168 °C
16 | CCCCCn1c(C2=CC(=O)c3ccccc3C2=O)ccc1C1=CC(=O)c2ccccc2C1=O | 128 °C
17 | N#Cc1cc(N2CCCCC2)ccc1[N+](=O)[O-] | 126 to 127 °C
18 | CC12CCC(C(=NO)C1=O)C(C)(C)O2 (configuration not stated) | 158 to 159 °C
19 | CON(C)C(=O)Nc1ccc(OCCc2ccc(C)cc2)cc1 | 82 to 83 °C
20 | Cc1nnc2c(NC3CCCC3)nc3ccccc3n12 | 196 to 198 °C
21 | Cc1c(N)ccc([N+](=O)[O-])c1Cl | 134 to 138 °C
22 | CCC(=O)OC(c1nc2c(C(F)(F)F)cccc2c(O)c1C(=O)Nc1nccs1)C(C)C (configuration not stated) | 222 °C
23 | CC(=O)OC1O[C@H](CC#N)[C@@H](OC(=O)c2ccccc2)[C@H]1OC(=O)c1ccccc1 (some centres not stated) | 124 to 126 °C
24 | COc1ccccc1C=C1CS(=O)(=O)CC(=Cc2ccccc2OC)C1=O | 198 to 200 °C

Row | SMILES | melting point
25 | C=CCc1ccc(OCCC(C)C)c2c(=O)cc(-c3nnnn3Cc3ccccc3)oc12 | 92.5 to 94 °C
26 | CNC(=O)C(=NOC)c1ccccc1COc1ncc(Sc2ccccc2)cc1Cl | 84 to 86 °C
27 | COc1cc2nc(-c3n[nH]cc3NC(=O)N3CCCCC3)[nH]c2cc1Cl | > 310 °C
28 | CCCCCCCOc1ccc(C(=O)Nc2ccccc2O)cc1 | 131 to 133 °C
29 | O=[N+]([O-])c1oc2ccc(-c3ccc(CCO)cc3)cc2c1-c1ccccc1 | 86 to 87 °C
30 | NN(c1ccccc1)c1cc(Cl)nc(Cl)n1 | 114 to 116 °C
31 | COCCOCc1c(CO)sc2c(=O)c(C(=O)NCc3ccc(Cl)cc3)cn(C)c12 | 167 to 168 °C
32 | CC(C)(C)OC(=O)N1CCN(c2cccc3c2c(Br)cn3S(=O)(=O)c2ccccc2)CC1 | 188 to 189 °C
33 | O=c1[nH]c2ccc(Cl)cc2n1-c1cccc(Cl)c1 | 112 °C
34 | COc1ccc2c(c1)CCC1CCN(C)C(=O)C(CC(C)NC(C)C)=C21 (configuration not stated) | 118 to 120 °C
35 | CCN(CC)c1cc(C)nc(-c2ccncc2)n1 | 205 to 208 °C
36 | Nc1cc(C(=O)O)cc(S(N)(=O)=O)c1Oc1cccc(C(F)(F)F)c1 | 270 °C
37 | COc1ccc(OC)c2c1CC(C(=O)O)CC2=O (configuration not stated) | 199 to 201 °C
38 | CCc1c(OC)nc(OC)nc1C(=O)c1cc(C)cc(CO)c1 | 101 to 103 °C
39 | COc1ccc(Cc2ccc(NC3=NCCN3)cc2OC)cc1 | 127 to 128 °C
40 | Cn1cc2c(C3CC3C#N)c(Br)ccc2n1 (configuration not stated) | 154 to 156 °C
41 | CCC(C)C(NC(=O)C(C)CS)C(=O)O (configuration not stated) | 164 °C
42 | CC(C)(C)c1ccc(/C=N/OCCOc2ccc(C(=O)O)c(OC(=O)c3ccc(C(F)(F)F)cc3)c2)cc1 | 146 to 148 °C
43 | COc1ccc(-c2nc(SCc3cccc(CSc4ncnc5nc[nH]c45)c3)[nH]c2-c2ccc(OC)cc2)cc1 | 129 to 130 °C
44 | COc1cccc(C=O)c1OS(=O)(=O)C(F)(F)F | 29.5 to 31.5 °C
45 | Cc1c(Nc2c(C#N)cncc2-c2cc3cc(C=O)ccc3o2)ccc2[nH]ccc12 | 235 to 237 °C
46 | CCc1nsc(C(=O)O)c1C(=O)OC | 43 to 45 °C
47 | CCCC(=O)C1=C(n2cccn2)CC(C2CCCSC2)CC1=O (configuration not stated) | 127 °C
48 | OCC1=C(c2ccc3sccc3c2)N2CCN=C2S1 | 149 to 150 °C

Row | SMILES | melting point
49 | O=c1oc2ccccc2n1CCCl | 77 to 79 °C
50 | CCCCNC(=O)OC1c2ccccc2C(=O)N1c1ccc2ccc(Cl)nc2n1 (configuration not stated) | 152 °C
51 | CC(=O)c1nc2cc(Cl)c(OCC(F)(F)F)cc2cc1OCc1ccccc1 | 110 to 112 °C
52 | CC(=O)Oc1cc(Oc2ccccc2)c(OC(C)=O)c2ccccc12 | 137 to 138 °C
53 | CCc1ccc(Nc2nc3cc(NC(=O)c4ccccc4)ccc3o2)cc1 | 239 to 240 °C
54 | O=c1oc2cc(O)c(O)cc2c(O)c1-c1coc2c1c(=O)oc1cc(O)c(O)cc12 | > 300 °C
55 | CCc1cc2c(cc(C(N)=O)c(=O)n2Cc2ccc(-c3ccccc3-c3nnn(C(c4ccccc4)(c4ccccc4)c4ccccc4)n3)cc2)c(CC)n1 | 162 to 165 °C
56 | O=C(Nc1ccc(OCCCCl)c2ccccc12)c1cc(F)cc(N2CCCCC2)c1 | 181 to 182 °C
57 | COC(=O)C1=C(C)NC(C=O)=C(C(=O)OC)C1c1cccc2c(=O)c(C)c(-c3ccccc3)oc12 (configuration not stated) | 216 °C
58 | CCOC(=O)ON=C1Cc2ccccc2N(C(N)=O)c2ccccc21 | 189 to 190 °C
59 | CSc1ccccc1CNC(=O)[C@@H]1CCCN(c2cccc3c2C(=O)N(Cc2ccncc2)C3=O)C1 | 216 to 217 °C
60 | Cc1cc(Cl)nnc1NS(=O)(=O)c1cccc2c(N(C)C)cccc12 | 182 to 186 °C
61 | COc1cc(C2CCCCC2)c(Cl)cc1CCO | 78 to 79 °C
62 | CCOC(=O)C1=C(C)N(c2ccc(Cl)cc2)C(=O)CC1 | 124 to 126 °C
63 | Cc1cc(C)cc(SCCC(=O)O)c1 | 69 to 70 °C
64 | CC=CCNc1cc(C(=O)O)cc(S(N)(=O)=O)c1Oc1cccc(NC(C)=O)c1 | 198 to 202 °C
65 | Cc1sc(N)c(C(=O)c2cccc3ccccc23)c1C | 195 to 197 °C
66 | CC(=O)Oc1ccc2c(=O)c(C=O)coc2c1 | 157 to 159 °C
67 | CC1(C)SCCN(S(=O)(=O)c2ccc(-c3ccc(Br)cc3)cc2)C1C(=O)NO (configuration not stated) | 190 to 192 °C
68 | Cc1cc(C(=O)N2CCC3(CC2)CSC2=C(O3)c3ccccc3C(=O)C2=O)nn1C | 184 to 185 °C
69 | CCCCCCC(C(=O)O)c1cccc(Sc2ccccc2C)c1O (configuration not stated) | 90 to 91 °C
70 | CCN(CC1Cc2ccccc2N1CC)C(=N)N (configuration not stated) | 230 °C
71 | CCc1cn(C2CC(O)C(CN=[N+]=[N-])O2)c(=O)[nH]c1=O (configuration not stated) | 174 to 177 °C
72 | CCCc1cc(-c2ccc(F)c3ccccc23)nc(N)n1 | 137 °C
